Measured values from patent publication US12440496B2, “Natriuretic peptide receptor a agonists useful for the treatment of cardiometabolic diseases, kidney disease and diabetes” (Merck Sharp & Dohme LLC, priority 2019, dated 2025).

Biological target: T1, hNPRA (Homo sapiens, UniProt P16066)
T1 construct: expressed in transfected cells
T1 sequence (P16066 33-1061): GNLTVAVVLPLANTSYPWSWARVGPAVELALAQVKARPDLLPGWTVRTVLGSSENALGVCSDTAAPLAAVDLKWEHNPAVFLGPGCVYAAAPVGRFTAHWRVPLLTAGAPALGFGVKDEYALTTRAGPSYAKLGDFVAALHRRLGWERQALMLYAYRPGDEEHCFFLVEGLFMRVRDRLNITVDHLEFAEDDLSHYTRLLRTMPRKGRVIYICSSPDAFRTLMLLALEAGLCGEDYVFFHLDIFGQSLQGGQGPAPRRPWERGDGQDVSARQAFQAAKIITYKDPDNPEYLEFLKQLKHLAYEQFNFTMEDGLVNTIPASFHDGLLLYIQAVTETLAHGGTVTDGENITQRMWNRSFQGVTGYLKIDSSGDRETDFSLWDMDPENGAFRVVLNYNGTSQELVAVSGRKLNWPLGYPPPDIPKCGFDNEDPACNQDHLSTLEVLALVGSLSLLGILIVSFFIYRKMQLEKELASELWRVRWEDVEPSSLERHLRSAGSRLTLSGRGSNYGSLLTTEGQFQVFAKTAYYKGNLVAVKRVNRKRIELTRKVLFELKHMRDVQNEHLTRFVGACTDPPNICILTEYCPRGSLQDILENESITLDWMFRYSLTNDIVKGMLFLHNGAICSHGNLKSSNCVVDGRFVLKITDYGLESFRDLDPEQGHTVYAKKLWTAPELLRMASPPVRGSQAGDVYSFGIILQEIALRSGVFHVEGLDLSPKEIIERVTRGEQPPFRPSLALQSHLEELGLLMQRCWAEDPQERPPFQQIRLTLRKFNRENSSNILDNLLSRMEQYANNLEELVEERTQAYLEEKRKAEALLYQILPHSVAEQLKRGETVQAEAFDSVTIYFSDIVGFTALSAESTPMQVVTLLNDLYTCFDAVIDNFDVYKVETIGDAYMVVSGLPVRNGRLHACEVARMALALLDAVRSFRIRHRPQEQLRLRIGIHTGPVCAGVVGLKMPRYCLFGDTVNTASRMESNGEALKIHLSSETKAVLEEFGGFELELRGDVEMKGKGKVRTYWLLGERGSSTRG
Test: NPRA Functional Cell Assay (cGMP HTRF, NPRA HEK JumpIn stable cells)
Format: cell-based
Settings: cGMP production, 1 hour at 37° C., 10-point dose response
Source text: NPRA Functional Cell Assay
Assay Buffer components HEPES and Opti-MEM® I Reduced-Serum with Glutamine (no phenol red) were from Gibco/Invitrogen (Thermo Fisher Scientific, Waltham, MA USA). 3-Isobutyl-1-methylxanthine (IBMX) and 4-(3-Butoxy-4-methoxybenzyl) imidazolidin-2-one (RO20) were obtained from Sigma-Aldrich (St. Louis, MO, USA). DPBS (Dulbecco's phosphate-buffered saline) without Ca2+ and Mg2+ was purchased from GE Healthcare Bio-Sciences (Pittsburgh, PA, USA). 384 well white Optiplates were from Perkin Elmer (Atlantic Highlands, NJ, USA). Human ANP (Atrial Natriuretic Peptide) (1-28) was purchased from Sigma-Aldrich (Catalog #A1663) and rat ANP (1-28) from Bachem (Torrance, CA, USA) (Catalog #H2100). Human-BNP (Human-Brain Natriuretic Peptide) (1-32 AA) was purchased from American Peptide Company (Sunnyvale, CA, USA) (product No. 14-1-90). cGMP kits were purchased from Cisbio. The assay ready frozen (ARF) Human/rat/dog NPRA HEK JumpIn Stable frozen cells (low passage number 5-11) were prepared in-house.
Test compounds were titrated in DMSO in a 10-point dose response in a separate step followed by a 100-fold dilution into the reaction. Positive response for each assay was determined using 10 nM rat-ANP peptide (rat cells) or 50 nM h-ANP peptide (human and dog cells).
Cells were thawed, washed with DPBS and resuspended in assay buffer (Opti-MEM+Glutamine, phenol red free media, 10 mM HEPES, 100 uM IBMX and 100 uM RO20) that was warmed to 37° C. Cells were then transferred to microplates via a Microplate Combi dispenser at a density of 1500, 400 and 1200 cells/well for human, rat and dog cells respectively, followed by acoustic transfer (Echo) of compound.
(§1) Compounds and cells were incubated at 37° C. with 5% CO2 for 1 hour, after which the cells were lysed and cGMP was captured using a CisBio cGMP HTRF assay kit. The TRF signal was measured with an Envision plate reader (emission set to 615 and 665 nm) after 1 hour incubation at ambient temperature. The TRF signal was converted to [cGMP] through the use of a cGMP calibration curve on each microplate. EC50's were generated from the resulting dose response curves by use of a 4 parameter logistic algorithm.
Assay Buffer components HEPES and Opti-MEM® I Reduced-Serum with Glutamine (no phenol red) were from Gibco/Invitrogen. 3-Isobutyl-1-methylxanthine (IBMX) and 4-(3-Butoxy-4-methoxybenzyl) imidazolidin-2-one (RO20) were obtained from Sigma. DPBS (Dulbecco's phosphate-buffered saline) without Ca2+ and Mg2+ was purchased from GE Healthcare Bio-Sciences (Pittsburgh, PA, USA). 384 well white Optiplates were from Perkin Elmer (Atlantic Highlands, NJ, USA). Human ANP (1-28) was purchased from Sigma (A1663) and rat ANP (1-28) from Bachem (H2100). Human-BNP (1-32 AA) was purchased from American Peptide Company (Sunnyvale, CA, USA) (product No. 14-1-90). cGMP kits were purchased from Cisbio (Bedford, MA, USA). The assay ready frozen (ARF) Human/rat/dog NPRA HEK JumpIn Stable frozen cells (low passage number 5-11) were prepared in-house.
as §1, with “Envision®” for “Envision”, “reader (Perkin Elmer)” for “reader”
hNPRA EC50 (nM) were determined for the compounds of Example 1 through Example 273 and are reported in the Experimental section of this application.

| SMILES | EC50 [nM] |
| --- | --- |
| CN(C)C1CN(C(=O)c2cccc([C@@H](CCN3CCC(O)CC3)NC(=O)c3nc4cc5c(nc4s3)CC[C@H](C(C)(C)C)C5)c2)C1 (racemic) [Example 148, rac-(7S)-7-tert-butyl-N-[rac-(1R)-1-[3-[3-(dimethylamino)azetidine-1-carbonyl]phenyl]-3-(4-hydroxy-1-piperidyl)propyl]-5,6,7,8-tetrahydrothiazolo[5,4-b]quinoline-2-carboxamide] | 656 |
| CN1C(=O)OCC12CN(C(=O)c1cccc([C@@H](CCN3CCC(O)CC3)NC(=O)c3nc4cc5c(nc4s3)CC[C@H](C(C)(C)C)C5)c1)C2 (racemic) [Example 144, rac-(7S)-7-tert-butyl-N-[rac-(1R)-3-(4-hydroxy-1-piperidyl)-1-[3-(5-methyl-6-oxo-7-oxa-2,5-diazaspiro[3.4]octane-2-carbonyl)phenyl]propyl]-5,6,7,8-tetrahydrothiazolo[5,4-b]quinoline-2-carboxamide] | 462 |
| CC1(C)CN(CC[C@@H](NC(=O)c2nc3cc4c(nc3s2)CC[C@H](C(C)(C)C)C4)c2ccc(-c3ccc(=O)[nH]c3)cc2)C1 (racemic) [Example 77, rac-(7S)-7-tert-butyl-N-[rac-(1R)-3-(3,3-dimethylazetidin-1-yl)-1-[4-(6-oxo-1H-pyridin-3-yl)phenyl]propyl]-5,6,7,8-tetrahydrothiazolo[5,4-b]quinoline-2-carboxamide] | 681 |
| CN(C)CC[C@@H](NC(=O)c1nc2cc3c(nc2s1)CC[C@H](C(C)(C)C)C3)c1cccc(C(=O)N2CC3(CNC3)C2)c1 (racemic) [Example 91, rac-(7S)-7-tert-butyl-N-[rac-(1R)-1-[3-(2,6-diazaspiro[3.3]heptane-2-carbonyl)phenyl]-3-(dimethylamino)propyl]-5,6,7,8-tetrahydrothiazolo [5,4-b]quinoline-2-carboxamide] | 292 |
| CC(C)(C)[C@H]1CCc2nc3sc(C(=O)N[C@H](CCN4CCCCC4)c4ccc(-c5ccc(O)nc5)cc4)cc3cc2C1 (racemic) [Example 32, rac-(6S)-6-tert-butyl-N-[rac-(1R)-1-[4-(6-oxo-1H-pyridin-3-yl)phenyl]-3-piperidin-1-ium-1-yl-propyl]-5,6,7,8-tetrahydrothieno[2,3-b]quinoline-2-carboxamide;formate] | 478 |
| CC(C)(C)[C@H]1CCc2nc3sc(C(=O)N[C@H](CCN4CCC(O)CC4)c4ccc(-c5c[nH]nc5C(F)(F)F)cc4)nc3cc2C1 (racemic) [Example 167, rac-(7S)-7-tert-butyl-N-[rac-(1R)-3-(4-hydroxypiperidin-1-ium-1-yl)-1-[4-[3-(trifluoromethyl)-1H-pyrazol-4-yl]phenyl]propyl]-5,6,7,8-tetrahydrothiazolo[5,4-b]quinoline-2-carboxamide; 2,2,2-trifluoroacetate] | 666 |
| CC(C)(C)[C@H]1CCc2nc3sc(C(=O)N[C@H](CCN4CCC(F)CC4)c4ccc(-c5ccc(=O)[nH]c5)cc4)cc3cc2C1 (racemic) [Example 59, rac-(6S)-6-tert-butyl-N-[rac-(1R)-3-(4-fluoropiperidin-1-ium-1-yl)-1-[4-(6-oxo-1H-pyridin-3-yl)phenyl]propyl]-5,6,7,8-tetrahydrothieno[2,3-b]quinoline-2-carboxamide;formate] | 1010 |
| CNC(=O)c1cccc([C@@H](CCN(C)C)NC(=O)c2nc3cc4c(nc3s2)CC[C@H](C(C)(C)C)C4)c1 (racemic) [Example 98, rac-(7S)-7-tert-butyl-N-[rac-(1R)-3-(dimethyl-amino)-1-[3-(methylcarbamoyl)phenyl]propyl]-5,6,7,8-tetrahydrothiazolo[5,4-b] quinoline-2-carboxamide] | 1450 |
| CN(C)CC[C@@H](NC(=O)c1nc2cc3c(nc2s1)CC[C@H](C(C)(C)C)C3)c1cccc(C(=O)N2CC(C)(O)C2)c1 (racemic) [Example 93, rac-(7S)-7-tert-butyl-N-[rac-(1R)-3-(dimethylamino)-1-[3-(3-hydroxy-3-methyl-azetidine-1-carbonyl)phenyl]propyl]-5,6,7,8-tetrahydrothiazolo[5,4-b] quinoline-2-carboxamide] | 527 |

Results, then the compound that gave them:

| EC50 [nM] | SMILES |
| --- | --- |
| 1870 | CC(C)(C)[C@H]1CCc2nc3sc(C(=O)NC(CCN4CCCCC4)c4ccccc4)cc3cc2C1 (stereo partly drawn) [Example 242, (6S)-6-tert-butyl-N-(1-phenyl-3-piperidin-1-ylpropyl)-5,6,7,8-tetrahydrothieno[2,3-b]quinoline-2-carboxamide] |
| 679 | O=C(O)C(F)(F)F.[2H]C([2H])([2H])N(CC[C@@H](NC(=O)c1nc2cc3c(nc2s1)CC[C@H](C(C)(C)C)C3)c1ccc(NS(=O)(=O)N(C)C)nc1)C([2H])([2H])[2H] (racemic) [Example 207, [rac-(3R)-3-[6-(dimethylsulfamoylamino)-3-pyridyl]-3-[[rac-(7S)-7-tert-butyl-5,6,7,8-tetrahydrothiazolo[5,4-b]quinoline-2-carbonyl]amino]propyl]-bis(trideuteriomethyl)ammonium; 2,2,2-trifluoroacetate] |
| 2080 | CC(C)(C)[C@H]1CCc2nc3sc(C(=O)N[C@H](CCN4CCC(C(=O)O)CC4)c4ccccc4)cc3cc2C1 [Example 258, 1-[(3R)-3-({[(6S)-6-tert-butyl-5,6,7,8-tetrahydrothieno[2,3-b]quinolin-2-yl]carbonyl}amino)-3-phenylpropyl]piperidine-4-carboxylic acid] |
| 632 | CC(C)(C)[C@H]1CCc2nc3sc(C(=O)N[C@H](CCN4CCC(O)CC4)c4ccccc4)cc3cc2C1 [Example 250, (6S)-6-tert-butyl-N-[(1R)-3-(4-hydroxypiperidin-1-yl)-1-phenylpropyl]-5,6,7,8-tetrahydrothieno[2,3-b]quinoline-2-carboxamide] |
